Laboratory results published in patent US8304206B2, “Mass spectrometry assays for identifying compounds that activate deacetylases” (Sirtris Pharmaceuticals, Inc., priority 2005, dated 2012).
Read-outs that look alike come from different tables or passages of the source.

Assays:
SIRT1 [1] = target: T1, SIRT1 (Homo sapiens, UniProt Q96EB6); assay: SIRT1 Km for NAD+ (mass spectrometry); assay type: biochemical; conditions: 50 μM Acetylated Peptide Substrate, 1% DMSO
T1 sequence (Q96EB6 1-747): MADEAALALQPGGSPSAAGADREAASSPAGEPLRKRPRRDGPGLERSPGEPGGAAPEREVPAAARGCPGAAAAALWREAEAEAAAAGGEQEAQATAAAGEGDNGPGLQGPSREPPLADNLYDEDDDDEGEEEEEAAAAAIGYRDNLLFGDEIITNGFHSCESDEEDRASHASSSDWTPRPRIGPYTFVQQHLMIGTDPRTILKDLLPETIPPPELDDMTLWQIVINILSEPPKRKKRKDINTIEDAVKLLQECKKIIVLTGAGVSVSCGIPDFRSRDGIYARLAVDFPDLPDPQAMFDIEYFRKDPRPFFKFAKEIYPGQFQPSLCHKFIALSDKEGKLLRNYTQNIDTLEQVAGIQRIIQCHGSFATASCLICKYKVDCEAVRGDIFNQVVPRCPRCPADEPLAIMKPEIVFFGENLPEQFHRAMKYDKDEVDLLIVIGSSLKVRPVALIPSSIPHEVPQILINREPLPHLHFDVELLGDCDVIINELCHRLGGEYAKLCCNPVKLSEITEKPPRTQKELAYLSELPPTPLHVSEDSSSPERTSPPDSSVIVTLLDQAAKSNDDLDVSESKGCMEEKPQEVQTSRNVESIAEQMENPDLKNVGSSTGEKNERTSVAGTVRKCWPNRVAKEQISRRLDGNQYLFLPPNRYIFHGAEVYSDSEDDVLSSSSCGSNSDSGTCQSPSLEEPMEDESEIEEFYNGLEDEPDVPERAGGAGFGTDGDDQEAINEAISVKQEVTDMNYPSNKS

SIRT1 [2] = target: T1, SIRT1; conditions: Sirt1, Fluorescent; peptide p53 (aa 379-382) *FL; read-out: NAD Km; cited from earlier work
Sirt2 [3] = target: T2, Sirt2 (Homo sapiens, UniProt Q8IXJ6); conditions: Sirt2, Fluorescent; peptide p53 (aa 317-320) *FL; read-out: NAD Km; cited from earlier work
T2 sequence (Q8IXJ6 1-389): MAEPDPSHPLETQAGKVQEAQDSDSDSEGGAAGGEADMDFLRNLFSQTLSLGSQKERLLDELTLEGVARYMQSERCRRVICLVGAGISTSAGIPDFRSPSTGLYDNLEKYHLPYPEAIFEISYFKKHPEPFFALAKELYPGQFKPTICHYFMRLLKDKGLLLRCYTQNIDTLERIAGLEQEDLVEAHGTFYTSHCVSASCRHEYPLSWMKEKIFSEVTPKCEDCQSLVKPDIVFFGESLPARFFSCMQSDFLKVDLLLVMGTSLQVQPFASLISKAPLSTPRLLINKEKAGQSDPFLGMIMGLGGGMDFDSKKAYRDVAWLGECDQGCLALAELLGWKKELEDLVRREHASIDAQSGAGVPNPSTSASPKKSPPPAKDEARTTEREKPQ

Sirt3 = target: T3, Sirt3 (Homo sapiens, UniProt Q9NTG7); conditions: Sirt3, Fluorescent; peptide p53 (aa 317-320) *FL; read-out: NAD Km; cited from earlier work
T3 sequence (Q9NTG7 1-399): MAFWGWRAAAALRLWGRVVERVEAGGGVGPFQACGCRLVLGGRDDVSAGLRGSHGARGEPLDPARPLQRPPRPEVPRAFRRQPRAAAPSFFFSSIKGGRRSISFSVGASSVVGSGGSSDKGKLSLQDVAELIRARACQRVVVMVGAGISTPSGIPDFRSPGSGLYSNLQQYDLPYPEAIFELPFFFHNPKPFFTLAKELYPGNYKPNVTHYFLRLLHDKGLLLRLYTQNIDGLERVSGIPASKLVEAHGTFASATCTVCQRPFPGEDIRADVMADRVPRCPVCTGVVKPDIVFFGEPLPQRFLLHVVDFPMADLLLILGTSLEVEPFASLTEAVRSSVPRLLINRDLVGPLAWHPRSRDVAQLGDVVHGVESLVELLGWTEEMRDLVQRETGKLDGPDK

SIRT1 [4] = target: T1, SIRT1; conditions: Sirt1, Nicotinamide release, read-out: NAD Km, cited from earlier work
SIRT1 [5] = target: T1, SIRT1; conditions: Sirt1, FRET; peptide p53 20 mer (aa 372-387) *FL; read-out: NAD Km; cited from earlier work
Sirt2 [6] = target: T2, Sirt2; conditions: Sirt2, FRET; peptide p53 20 mer (aa 372-387) *FL; read-out: NAD Km; cited from earlier work
SIRT1 [7] = target: T1, SIRT1; conditions: Sirt1, Nicotinamide release; peptide p53 19 mer (aa 368-386) no FL; read-out: NAD Km; cited from earlier work

For NC(=O)c1ccc[n+]([C@@H]2O[C@H](COP(=O)([O-])OP(=O)(O)OC[C@H]3O[C@@H](n4cnc5c(N)ncnc54)[C@H](O)[C@@H]3O)[C@@H](O)[C@H]2O)c1 [NAD^+], the Km (SIRT1 [1]) is given as 220 µM, the Km (SIRT1 [2]) is given as 558 µM and the Km (Sirt2 [3]) is given as 547 µM. The Km (Sirt3) was 2030 µM, the Km (SIRT1 [4]; peptide p53 (aa 368-386) *FL) was 192 µM and the Km (SIRT1 [4]; peptide p53 (aa 368-386) no FL) was 132 µM. The Km (SIRT1 [5]) was 90 µM, the Km (Sirt2 [6]) was 42 µM and the Km (SIRT1 [7]) was 133 µM.
